Results published in US10307411B2, “Use of cotinine in treating or preventing neurogenesis deficits and enhancing neurogenesis” (Department of Veterans Affairs, priority 2014, dated 2019).

How the values were obtained:
[1] = test system: inflammation genes in the hippocampus of stressed mice; test: Inflammatory response and Autoimmunity PCR array (RT-PCR) on hippocampus of mice subjected to forced swimming stress; type: in vivo
Source text: Two-month-old male C57BU6J mice (The Jackson Laboratory, Bar Harbor, Me.), weighing 25-30 g were maintained on a 12-hours light/dark cycle (light on at 07:00) with ad libitum access to food and water and maintained at a regulated temperature of 25±1″C. Upon arrival mice were group-housed and acclimated for 7 days before any intervention.
Mice were randomly divided into three groups as follows: group 1 controls that were not exposed to stress (NES) and treated with vehicle (phosphate buffered saline, PBS); group 2 controls subjected to forced swimming stress (FSB) and treated with vehicle; group 3 subjected to forced swimming stress and treated with cotinine (FSA).
Cotinine ((5S)-1-methyl-5-(3-pyridyl) pyrrolidin-2-one; Sigma-Aldrich Corporation, St. Louis, Mo., USA) solutions were prepared by dissolving the powdered compound in sterile phosphate buffered saline (PBS), and vehicle (PBS). Mice were treated with vehicle or cotinine (5 mg/kg) via gavage. […] All investigators were blind to treatment groups and doses were chosen based on previously studies (Zeitlin, et al., (2012) Cotinine enhances the extinction of contextual fear memory and reduces anxiety after fear conditioning. Behav Brain Res, 228, 284-293.). Treatments were administered for 7 days before the induction of stress. For all animals, treatment continued from the onset of treatment until euthanasia.
To induce chronic stress, mice were subjected to repetitive forced swimming (FS) for six consecutive days, for six minutes each day, as described previously (Furukawa-Hibi, et al., (2011) The hydrophobic dipeptide Leu-lie inhibits immobility induced by repeated forced swimming via the induction of BDNF. Behav Brain Res. 2011 Jul. 7; 220(2):271-280). Each mouse was placed in an inescapable transparent plastic cylinder (40 centimeters (cm) high×20 cm in diameter) filled with water to a depth of 30 cm, for six minutes. Water temperature was maintained at 24-25° C. and water was changed between all trials. In all cases, following exposure, animals were retrieved, dried with a hand towel and returned to their home cages. Mice assigned to NES control group were removed from the animal housing facility and taken to the behavioral testing room during the same period of time than FS mice, but remained in their home cages during the FS period. In all experiments, no mice needed assistance to avoid drowning.
Following behavioral experimentation, euthanasia was performed via cervical dislocation under anesthesia with isofluorane (4% induction, 2% maintenance) by investigators not assigned to prior work with the mice blinded to the treatments. Whole brains were collected and immediately stored frozen at −80° C.
The hippocampi were dissected on ice and placed into RNAlater tubes (Life Technologies; Thermo Fisher Scientific, Waltham, Mass.). RNAlater is a proprietary solution which protects RNA in tissue samples from degradation to allow for analysis at a later date. RNase free conditions were created and maintained throughout the procedure by washing labware in a 0.1% DEPC solution followed by rinsing with RNase free water. Total RNA extraction and purification was performed using RNeasy Lipid Tissue Extraction Kit (Qiagen N.V., Venlon NL). Sample homogenization was performed using Kontes Pellet Pestle Cordless Motor and/or 20 gauge needle and syringe. Samples were extracted using a Qiazol/Chloroform extraction. The samples were purified on an RNeasy spin column using multiple washes. An on-column DNase incubation was performed in order to remove contaminating DNA. The entire extraction and purification step was performed twice to remove all contaminating DNA for samples ran on the neurogenesis arrays. Samples were eluted in RNase free water.
Nucleic acid quantification was performed on the RNA, to determine how many microliters of sample to add to the cDNA reaction, as the reaction requires a specific concentration of RNA to achieve optimal results. […]

Salmonella = details: 0-1000 μg/plate; cited from earlier work
Chinese hamster ovary = details: 0-1000 μg/ml; cited from earlier work
VEGF = test: Western blot of VEGF in hippocampus of mice subjected to repetitive forced swim stress; type: in vivo
Method: Mice pretreated with 5 mg/kg of cotinine (Cot 5) or vehicle (Veh) were exposed to repetitive 6-min forced swim (FS) daily for 6 days (a) to under continuous treatment. Following testing, mice were euthanized and the levels of VEGF and β-tubulin in the hippocampus were analyzed by Western blot. The plots represent VEGF immunoreactivity (IR) values in the hippocampus of mice. […] Mice pretreated with 5 mg/kg of cotinine (Cot 5) or vehicle (Veh) were exposed to repetitive 6-min forced swim (FS) daily for 6 days (a) to under continuous treatment or controls, not subjected to the forced swim (NES). Following resting, mice were euthanized and the levels of VEGF and β-tubulin in the hippocampus were analyzed by Western blot. The plots represent VEGF immunoreactivity (IR) values in the hippocampus of mice. […] The Western blot analysis investigated the expression of VEGF (FS mice: n=8-1O/group; NES mice: n=4-5/group). […] Brain tissues were then disrupted by sonication in cold lyses buffer (Cell Signaling Technology, Danver, Mass., USA) containing a complete protease inhibitor cocktail (Roche Molecular Biochemicals). After sonication, brain extracts were incubated on ice for 30 min and centrifuged at 20,000×g for 30 min at 4° C. Protein concentrations of supernatants were measured using the Bio-Rad protein assay (Bio-Rad, Hercules, Calif., USA). Equal amounts of protein were separated by gradient (4-20%), SOS-PAGE, then transferred to nitrocellulose membranes (BA83 0.2 μM; Bio-Rad). The membranes were blocked in TBS with 0.1% Tween 20 (TBST) containing 5% dry skim milk for 1 h. Membranes were incubated with primary antibodies in TBST overnight at 4° C. and with secondary antibodies for 1 h at room temperature (RT) in a blocking buffer. […] Images were acquired using an Odyssey Infrared Imaging System (Ll-COR Biosciences) and analyzed using the NIH Image J software. To analyze the group and treatment effects, differences between group means in the behavioral analyses were assessed using two-way analysis of variance (ANOVA) and post hoc Tukey test. […]

[2] = administered in the drinking water for 78 weeks; rats initiated with FANFT; cited from earlier work
[3] = hippocampus, forced swimming stress, cotinine 5 mg/kg gavage vs stressed vehicle-treated (FSB)
[4] = stressed mouse, cotinine vs vehicle

CN1C(=O)CC[C@H]1c1cccnc1 [cotinine, (5S)-1-methyl-5-(3-pyridyl) pyrrolidin-2-one]
number of inflammation genes differentially expressed ([1]; cut off of two-fold difference, stressed mouse treated with cotinine versus stressed mouse treated with vehicle): 10 genes | Fos expression decreased by ([1]; forced swimming + cotinine compared to forced swimming + vehicle): 2.5 fold | Complement component 3 (C3) decreased by ([1]; forced swimming + cotinine compared to stressed mouse treated with vehicle): 2.9 fold | C3 (Complement component 3) Fold regulation comparing to FSB [1, 3]: −2.89 fold | Ccl1 (Chemokine (C-C motif) ligand 1) Fold regulation comparing to FSB [1, 3]: 2.21 fold | Ccl2 (Chemokine (C-C motif) ligand 2) Fold regulation comparing to FSB [1, 3]: 2.46 fold | Ccl3 (Chemokine (C-C motif) ligand 3) Fold regulation comparing to FSB [1, 3]: −4.00 fold | Ccr2 (Chemokine (C-C motif) receptor 2) Fold regulation comparing to FSB [1, 3]: −2.87 fold | Ccr4 (Chemokine (C-C motif) receptor 4) Fold regulation comparing to FSB [1, 3]: 2.96 fold | Fos (FBJ osteosarcoma oncogene) Fold regulation comparing to FSB [1, 3]: −2.55 fold | Nos2 (Nitric oxide synthase 2, inducible) Fold regulation comparing to FSB [1, 3]: −3.93 fold | Tlr1 (Toll-like receptor 1) Fold regulation comparing to FSB [1, 3]: 2.32 fold | Tnfsf14 (Tumor necrosis factor (ligand) superfamily, member 14) Fold regulation comparing to FSB [1, 3]: 6.18 fold | inflammation genes analyzed that were down-regulated ([1]; stressed mice treated with cotinine vs stressed vehicle, hippocampus): 61% | Ccl3 change (down regulated by cotinine) [1, 4]: 2.8 fold | Ccr2 change (down regulated by cotinine) [1, 4]: 4.0 fold | genotoxic effects, Salmonella mutagenicity (Salmonella): no genotoxic effects | genotoxic effects, sister chromatid exchange (SCE) (Chinese hamster ovary): no genotoxic effects | VEGF protein expression in the hippocampus vs NES mice (VEGF; FS mice, cotinine 5 mg/kg, compared with non-stressed mice): not significantly different | VEGF protein expression in the hippocampus vs vehicle-treated FS mice (VEGF; FS mice, cotinine 5 mg/kg, normalized to β-tubulin): significantly higher levels of VEGF expression | VEGF protein expression in the absence of stress (VEGF; non-stressed mice, cotinine vs vehicle, t=0.2910, p=0.7795): no changes in VEGF expression | carcinogenicity / promotion of urinary bladder tumors [2]: neither carcinogenic nor promoted urinary bladder tumors
